In patent US6746686B2, “Coated implants” (Biocompatibles UK Limited, priority 2001, dated 2004):
Each block holds one substance with its values, some of them ahead of it.

Legend:
Assay type in all cases: physicochemical
[1] = Abciximab loading and elution in vitro
Method: In this study ^125I-labelled abciximab was loaded onto stents coated with either polymer 2.2 or as a comparison a bare stent (no polymer) by immersing the stents in a solution of 2 mg/ml drug in phosphate buffered saline containing 0.001% polysorbate 80 to assist dissolution for 30 minutes at room temperature. The stents were removed and wick dried. The stents were then placed into channels each forming part of a separate circuit of recirculating ([…]) phosphate buffered saline containing 1% albumin at 37° C. The level of 1251 label remaining on the stent was determined by measuring the level of label in the circulating PBS over a period of 24 or 48 hours and reported in percentage terms. The total loading of drug on stent was also determined and found to be about 5 μg per stent for the stents coated with polymer 2.2.

[2] = Uptake of fluorescence labelled oligonucleotide on polymer 2.2 coated stent; settings: polymer 2.2 coated stents; 30 minutes in 5 mg/ml solution in physiological saline
Method: Stents coated with polymer 2.2 were loaded with a 15-mer c-myc antisense oligonucleotide AACGTTGAGGGGCAT (sequence ID 2) labelled with a fluorescence label by immersing them for 30 minutes in a 5 mg/ml solution of the DNA in physiological saline.
The total loading was determined by placing 3 of the stents each into 3 ml PBS and sonicating for 30 minutes. The fluorescent label was quantified.

[3] = Radiolabelled (35S) heparin loading and elution, polymer 2.2 coated stents
Method: Radiolabelled (^35S) heparin (MW 8-10 kDa) was loaded onto stents coated with polymer 2.2, from a 2 mg/ml aqueous solution. To determine the total loading the stents were placed into liquid scintillant and coated for radioactivity. The mean uptake of heparin was 11 μg per stent. The stents were each placed into a volume of PBS to determine the rate of elution of heparin over a 4 hour period.

[4] = Heparin loading and release, polymer 2.1 coated stents
Method: This study investigated the ability of polymer 2.1 coated stents to take up and release a sample of unfractionated heparin with an average molecular weight of approx. 10000D.
Loading was carried out by immersion of the coated stents into a solution of heparin in PBS. A range of conditions were used to investigate the loading onto the stents.
Table 6 Summary of conditions and results of heparin loading and release Notes—*the time where released heparin reaches maximum; **the maximum weight of heparin released during a releasing experiment (see maximum point of the release profile, FIG. 2)

[5] = Loading of polymer films with FITC-Dextran; settings: FITC-Dextran mwt 4400; polymer 1.1 and polymer 2.1 coatings
Method: Steel strips (1 cm×1.5 cm) were cleaned in dichloromethane for 10 minutes using the ultra-sonics bath. 200 ul of a 50 mg/ml polymer solution was evenly coated onto the steel strips. For each polymer sample seven steel strips were coated. Coated steel strips were then dried overnight in a oven at 70° C. to cure the polymer films.
Six of the coated steel strips were placed polymer side down into a well containing a 1 mg/ml drug solution. One control sample was not loaded with drug. The steel strips were submerged for 1 hour. The steel strips were then removed from the well and the excess drug removed by dabbing the surface very gently with tissue. The steel strips were then allowed to dry for a further half hour at room temperature. Each sample was then dipped quickly in clean PBS solution to remove excess drug from the coating. (3 secs dip). Each steel strip was then placed in 3 ml of PBS solution contained in vials. Each vial was then sonicated for 20 mins at a bath temperature of 35° C. in order to extract the drug from the polymer coating. Each solution was then measured using fluorescence spectroscopy to determine the amount of drug uptake
In order to study the effect of drug molecular weight on the amount loaded into a polymer coating, a compound with a variety of molecular weights which could be detected by fluorescence had to be identified. […]

[6] = polymer 2.1 stent, loading 0.2 mg/ml, 30 min, released into 1 volume PBS
[7] = polymer 2.1 stent, loading 2.0 mg/ml, 30 min, released into 0.5 volume PBS
[8] = polymer 2.1 stent, loading 10 mg/ml, 5 min, released into 0.5 volume PBS

Substance: abciximab: antibody (MW about 50 kDa) to glycoprotein IIb/IIIa
- Release time from stent ([1]; cationic polymer (2.2) vs bare stent, PBS with 1% albumin at 37° C.): released over a more extended time
- Total loading of drug on stent ([1]; stents coated with polymer 2.2, 2 mg/ml, 30 minutes, room temperature): about 5 μg per stent

- Total loading [2]: about 20 μg per stent
Substance: AACGTTGAGGGGCAT [15-mer c-myc antisense oligonucleotide]

- Mean uptake of heparin ([3]; 2 mg/ml aqueous solution): 11 μg per stent
- Release pattern ([3]; elution into PBS over 4 hours): released initially as a burst
- Time to 100% release of heparin ([3]; elution into PBS, extrapolation of 4 hour release data): about 24 hours
- Total loading ([4]; polymer 2.1 stent, loading 0.2 mg/ml, 30 min): 3.4 µg
- Tmax (time where released heparin reaches maximum) [4, 6]: 15 min
- Wmax (maximum weight of heparin released) [4, 6]: 0.73 µg
- Tmax (time where released heparin reaches maximum) [4, 7]: 20 min
- Wmax (maximum weight of heparin released) [4, 7]: 2.07 µg
- Tmax (time where released heparin reaches maximum) [4, 8]: 10 min
- Wmax (maximum weight of heparin released) [4, 8]: 13.93 µg
Substance: heparin
- Release from the stents ([4]; polymer 2.1 coated stents): released from the stents over a prolonged period of time

- Uptake into polymer coatings [5]: could not be detected
Substance: Fluorescein Iso Thiocyanate Dextran [FITC-Dextran]
